According to patent US12660819B2, “Herbicidal derivatives” (SYNGENTA CROP PROTECTION AG, priority 2020, dated 2026):

Experiments:
Assay type in all cases: in vivo
[1] = tested on: Abutilon theophrasti (ABUTH); assay: Post-emergence Test (glasshouse, percentage damage to the plant); details: post-emergence spray, 1000 g/ha unless otherwise stated, evaluated after 13 days
How it was run: (§1)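 Seeds sown in pots in glasshouse (24/16 °C day/night, 14 h light, 65% humidity), then sprayed with compound at 1000 g/ha unless stated, from acetone/water 50:50 with 0.5% Tween 20. Damage assessed 13 days later on five-point scale (1=0–20% to 5=81–100%).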

[2] = tested on: Amaranthus retoflexus (AMARE); assay: as above; details: post-emergence spray, 1000 g/ha unless otherwise stated, evaluated after 13 days
How it was run: as §1

[3] = tested on: Echinochloa crus-galli (ECHCG); assay: as above; details: post-emergence spray, 1000 g/ha unless otherwise stated, evaluated after 13 days
How it was run: as §1

[4] = tested on: Ipomoea hederacea (IPOHE); assay: as above; details: post-emergence spray, 1000 g/ha unless otherwise stated, evaluated after 13 days
How it was run: (§2)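 After sowing in standard soil, pots were kept at 24/16 °C (day/night), 14 h light and 65% humidity. They were sprayed at 1000 g/ha unless otherwise stated, watered twice daily, and assessed for percentage damage at 13 days on a 1–5 scale.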

Setaria faberi (SETFA) [5] = assay: as above; details: post-emergence spray, 1000 g/ha unless otherwise stated, evaluated after 13 days
How it was run: as §2

Zea mays (ZEAMX) [6] = assay: as above; details: post-emergence spray, 1000 g/ha unless otherwise stated, evaluated after 13 days
How it was run: as §2

[7] = tested on: Amaranthus retoflexus (AMARE); assay: Pre-emergence Test (glasshouse, percentage damage to the plant); details: 1000 g/ha unless otherwise stated, five-point scale
Setaria faberi (SETFA) [8] = assay: as above; details: 1000 g/ha unless otherwise stated, five-point scale
[9] = tested on: Echinochloa crus-galli (ECHCG); assay: as above; details: 1000 g/ha unless otherwise stated, five-point scale
[10] = tested on: Ipomoea hederacea (IPOHE); assay: as above; details: 1000 g/ha unless otherwise stated, five-point scale
[11] = tested on: Abutilon theophrasti (ABUTH); assay: as above; details: 1000 g/ha unless otherwise stated, five-point scale
Zea mays (ZEAMX) [12] = assay: as above; details: 1000 g/ha unless otherwise stated, five-point scale

| Structure (SMILES) | Post-emergence Test ABUTH, percentage damage to the plant (five-point scale) [1] | Post-emergence Test AMARE, percentage damage to the plant (five-point scale) [2] | Post-emergence Test ECHCG, percentage damage to the plant (five-point scale) [3] | Post-emergence Test IPOHE, percentage damage to the plant (five-point scale) [4] | Post-emergence Test SETFA, percentage damage to the plant (five-point scale) (Setaria faberi (SETFA) [5]) | Post-emergence Test ZEAMX, percentage damage to the plant (five-point scale) (Zea mays (ZEAMX) [6]) | percentage damage to the plant, AMARE [7] | percentage damage to the plant, SETFA (Setaria faberi (SETFA) [8]) | percentage damage to the plant, ECHCG [9] | percentage damage to the plant, IPOHE [10] | percentage damage to the plant, ABUTH [11] | percentage damage to the plant, ZEAMX (Zea mays (ZEAMX) [12]) |
| --- | --- | --- | --- | --- | --- | --- | --- | --- | --- | --- | --- | --- |
| CCOC(=O)c1c(-c2ccc(Br)cc2F)n(CC)c(C)c(-c2ccc(Cl)cc2)c1=O [Compound 137, ethyl 2-(4-bromo-2-fluoro-phenyl)-5-(4-chlorophenyl)-1-ethyl-6-methyl-4-oxo-pyridine-3-carboxylate] | 3 (3=41-60%) | 3 (3=41-60%) | 4 (4=61-80%) | 3 (3=41-60%) | 3 (3=41-60%) | 2 (2=21-40%) | 5 (5=81-100%) | 1 (1=0-20%) | 0 | 0 | 0 | 0 |
| CCn1c(C)c(-c2ccc(OC)c(C(F)(F)F)c2)c(=O)c(C(=O)O)c1-c1ccc(Cl)c(Cl)c1 [Compound 81, 2-(3,4-dichlorophenyl)-1-ethyl-5-[4-methoxy-3-(trifluoromethyl)phenyl]-6-methyl-4-oxo-pyridine-3-carboxylic acid] | 3 (3=41-60%) | 2 (2=21-40%) | 3 (3=41-60%) | 2 (2=21-40%) | 3 (3=41-60%) | 1 (1=0-20%) | 1 (1=0-20%) | 4 (4=61-80%) | 1 (1=0-20%) | 1 (1=0-20%) | 1 (1=0-20%) | 1 (1=0-20%) |
| CCn1c(C)c(-c2ccc(Cl)s2)c(=O)c(C(=O)O)c1-c1ccc(Cl)c(Cl)c1 [Compound 63, 5-(5-chloro-2-thienyl)-2-(3,4-dichlorophenyl)-1-ethyl-6-methyl-4-oxo-pyridine-3-carboxylic acid] | 3 (3=41-60%) | 3 (3=41-60%) | 4 (4=61-80%) | 3 (3=41-60%) | 3 (3=41-60%) | 3 (3=41-60%) | 4 (4=61-80%) | 3 (3=41-60%) | 1 (1=0-20%) | 2 (2=21-40%) | 2 (2=21-40%) | 1 (1=0-20%) |
| CCn1c(C)c(C2=CCCC2)c(=O)c(C(=O)O)c1-c1ccc(Cl)c(Cl)c1 [Compound 68, 5-(cyclopenten-1-yl)-2-(3,4-dichlorophenyl)-1-ethyl-6-methyl-4-oxo-pyridine-3-carboxylic acid] | 3 (3=41-60%) | 1 (1=0-20%) | 2 (2=21-40%) | 3 (3=41-60%) | 3 (3=41-60%) | 1 (1=0-20%) | 1 (1=0-20%) | 5 (5=81-100%) | 1 (1=0-20%) | 2 (2=21-40%) | 1 (1=0-20%) | 1 (1=0-20%) |
| CCn1c(C)c(-c2cnc(F)c(F)c2)c(=O)c(C(=O)O)c1-c1ccc(Cl)c(Cl)c1 [Compound 59, 2-(3,4-dichlorophenyl)-5-(5,6-difluoro-3-pyridyl)-1-ethyl-6-methyl-4-oxo-pyridine-3-carboxylic acid] | 3 (3=41-60%) | 3 (3=41-60%) | 3 (3=41-60%) | 3 (3=41-60%) | 4 (4=61-80%) | 3 (3=41-60%) | 1 (1=0-20%) | 4 (4=61-80%) | 2 (2=21-40%) | 3 (3=41-60%) | 3 (3=41-60%) | 1 (1=0-20%) |
| CCn1c(C)c(-c2cc(Cl)nc(OC(C)C)c2)c(=O)c(C(=O)O)c1-c1ccc(Cl)c(Cl)c1 [Compound 69, 5-(2-chloro-6-isopropoxy-4-pyridyl)-2-(3,4-dichlorophenyl)-1-ethyl-6-methyl-4-oxo-pyridine-3-carboxylic acid] | 2 (2=21-40%) | 2 (2=21-40%) | 1 (1=0-20%) | 3 (3=41-60%) | 3 (3=41-60%) | 1 (1=0-20%) | 1 (1=0-20%) | 4 (4=61-80%) | 1 (1=0-20%) | 4 (4=61-80%) | 2 (2=21-40%) | 2 (2=21-40%) |
| CCOC(=O)c1c(-c2ccc(F)cc2F)n(CC)c(C)c(-c2ccc(Cl)cc2)c1=O [Compound 134, ethyl 5-(4-chlorophenyl)-2-(2,4-difluorophenyl)-1-ethyl-6-methyl-4-oxo-pyridine-3-carboxylate] | 3 (3=41-60%) | 3 (3=41-60%) | 4 (4=61-80%) | 3 (3=41-60%) | 4 (4=61-80%) | 3 (3=41-60%) | 1 (1=0-20%) | 0 | 0 | 0 | 1 (1=0-20%) | 0 |
| CCn1c(C)c(-c2ccc(Cl)cc2C)c(=O)c(C(=O)O)c1-c1ccc(Cl)c(Cl)c1 [Compound 156, 5-(4-chloro-2-methyl-phenyl)-2-(3,4-dichlorophenyl)-1-ethyl-6-methyl-4-oxo-pyridine-3-carboxylic acid] | 4 (4=61-80%) | 3 (3=41-60%) | 4 (4=61-80%) | 4 (4=61-80%) | 4 (4=61-80%) | 4 (4=61-80%) | 1 (1=0-20%) | 4 (4=61-80%) | 5 (5=81-100%) | 1 (1=0-20%) | 2 (2=21-40%) | 0 |
| CCn1c(C)c(-c2ccc(Cl)c(C(=O)NC3CC3)c2)c(=O)c(C(=O)O)c1-c1ccc(Cl)c(Cl)c1 [Compound 83, 5-[4-chloro-3-(cyclopropylcarbamoyl)phenyl]-2-(3,4-dichlorophenyl)-1-ethyl-6-methyl-4-oxo-pyridine-3-carboxylic acid] | 2 (2=21-40%) | 1 (1=0-20%) | 1 (1=0-20%) | 1 (1=0-20%) | 2 (2=21-40%) | 1 (1=0-20%) | 1 (1=0-20%) | 1 (1=0-20%) | 1 (1=0-20%) | 1 (1=0-20%) | 1 (1=0-20%) | 1 (1=0-20%) |
